The values below come from patent US20230348394A1, “COMPOSITIONS AND METHODS FOR TREATING MUSCULAR DYSTROPHIES” (The Regents of the University of California, priority 2020, published 2023).

Data set [1] concerns SSPN-HiBiT protein (sarcospan). The data set can be described thus: C2C12 SSPN-HiBiT protein reporter assay (12-well and 384-well format). It is filed as cell-based, murine. The protocol: C2C12 SSPN-HiBiT myoblasts were seeded at 25,000 cells per well in 2 ml of growth media in 12 well-plates and incubated for 3 days. Upon reaching confluency, the growth media was replaced with 2 ml of differentiation media. At day 2 of differentiation, the media on the cells was replaced with 2 ml of differentiation media containing compounds at a final concentration of 5.5 μM in 0.06% DMSO. For vehicle control-treated cells, 0.06% DMSO was added to the cells. After 48 hrs the cells were washed with PBS and frozen for 2-24 hrs. The plates containing cells were thawed on ice and 100 μl of ice-cold modified RIPA buffer containing 1% Triton X-100, 0.05% DOC, 0.05% SDS, and Halt Protease Inhibitor was added to each well. Cells were scratched, transferred into 1.5 ml tubes, and centrifuged for 20 min at 16,000×g at 4° C. The cell lysates were transferred into new tubes. DC assay was performed on cell lysates to determine protein concentration. White walled, white bottom 384-well microplates (Greiner) were prefilled with 15 μl of PBS and 15 μl of cell lysates were added to each well in triplicate. Then 30 μl Nano-Glo HiBiT Lytic Detection working solution was added to each well and incubated for 30 min at RT with shaking. The luminescence was measured on the EnVision plate reader and the signal was normalized to protein concentration and signal from vehicle-treated controls.
C2C12 SSPN-HiBiT myoblasts were seeded at 500 cells per well in 50 μl of growth media in 384-well white, clear bottom microplates (Greiner) and incubated for 3 days. Upon reaching confluency, the growth media was replaced with 50 μl of differentiation media consisting of phenol-red free DMEM with 2% horse serum (Sigma-Aldrich) using an EL406 combination washer dispenser (Biotek). At day 2 of differentiation, the media on the cells was aspirated, left with a residual volume of 10 μl, and replaced with 30 μl of fresh differentiation media. 0.5 μl of small molecule in DMSO or DMSO alone (for vehicle and positive control wells) were added to each well using a Biomek Fx (Beckman). To ensure proper mixing of the DMSO, 50 μl of additional differentiation media was added to all wells except the positive control treated wells. The final concentration of compound in each treated well was 0.5-10 μM in 0.55% DMSO and 0.55% DMSO only for vehicle. After 48 hrs of incubation, the plate was washed with phenol red-free DMEM, aspirated, and left with a residual volume of 5 μl using EL406 combination washer dispenser. After the wash, 25 μl of differentiation media containing 12 μM DRAQ5 nuclear stain was added to reach a final concentration 10 μM in each well and incubated for 15 min at 37° C. with 5% CO2. The cells were imaged using ImageXpress Micro Confocal High Content Imaging System (Molecular Devices). The nuclei count of imaged cells were determined using a custom module analysis in MetaXpress Analysis software (Molecular Devices). After imaging and analysis, the plate was aspirated, left with a residual volume of 5 μl and placed at −80° C. for 2-24 hrs. The plate was thawed at RT and 25 μl of PBS was added, followed by 30 μl of Nano-Glo HiBiT Lytic Detection working solution prepared according manufacturer recommendations. Luminescence was measured using the EnVision plate reader and the signal of each well was normalized to nuclei count and signal from vehicle-treated controls.
In order to effectively test new analogues, we created method for detecting SSPN protein in cells, e.g., SSPN-HiBiT. SSPN-HiBiT based on a murine C2C12 cell line expressing endogenous SSPN protein with an N-term fusion protein called the HiBiT, an 11 amino acid subunit of a luciferase enzyme (FIG. 10a). The SSPN-HiBiT protein is quantified through addition of substrate and a larger subunit of the luciferase enzyme to catalyze the formation of luminescent signal. […]
For orientation: With HiBiT, luminescence reflects the tagged protein that the partner subunit can reach.

The nature of data set [2]: Preliminary safety assessment, IP injection in C57/B16 mice. The class given is in vivo. The protocol: (§1) For the preliminary safety assessment of OT-9, we performed IP injections in 6 month old C57/B16 males. The mice were injected with 100 μl of vehicle (5% DMSO (Sigma), 95% PBS), 100 μl of 30 mg/kg of OT-9 in vehicle, or 100 μl of 50 mg/kg of OT-9 in vehicle (n=1 mouse per treatment). […] For assessment of activity, 20-weeks old male mdx littermates were injected in both tibialis anterior muscles with vehicle (5% DMSO, 95% PBS) or 86 μg of OT-9. Two mice were injected in both TAs with vehicle and three mice were injected in both TAs with 200 of OT-9 (9.4 mM solution containing 86 μg of OT-9). After 4 hours, the muscles were harvested and processed for gene expression analysis. For assessment of activity of OT-9m after local administration, 19-22-weeks old mdx males were injected in both tibialis anterior muscles with vehicle (5% DMSO, 95% PBS) or 3 mg/kg and 10 mg/kg of OT-9m. After 4 hours, the muscles were harvested and processed for gene expression analysis. For assessment of activity of OT-9m after systemic administration, 13-weeks old mdx males were injected subcutaneously with vehicle (4% PEG-200 in hydroxypropyl-b-cyclodextrin) or 20 mg/kg/day of OT-9m. After 13 days of treatment, the muscles were harvested and processed for gene expression analysis.
To evaluate the in vivo safety and activity of OT-9, we performed two pilot studies in wild-type C57/B16 and mdx mice. For the preliminary safety assessment of OT-9, we performed IP injections in 6-month old C57/B16 males. The mice were injected with vehicle, 30 mg/kg of OT-9, or 50 mg/kg of OT-9 (n=1).

Another data set deals with SSPN gene expression. The data set can be described thus: SSPN gene expression in tibialis anterior after intramuscular injection in mdx mice. It is filed as in vivo. As to conditions: 4 hours. The protocol:
as §1
After the preliminary safety evaluation, we tested the ability of OT-9 to increase SSPN gene expression in vivo. […] Five 20-weeks old male mdx littermates were subjected to intramuscular injections in both tibialis anterior (TA) muscles. Two mice were injected in both TAs with vehicle and […] were injected with 3 mg/kg of OT-9 (molar equivalent of 9.4 mM used in the safety assessment). After 4 hours of treatment, the TAs were harvested and processed for gene expression analysis. […] After determination that OT-9 is capable of increasing SSPN gene expression in vivo, we evaluated one of its derivatives, OT-9m, for its ability to increase SSPN expression in mdx mice. OT-9m was chosen based on its improved activity in vitro compared to OT-9 (compare, Table 1, entries 1 & 14). To assess activity OT-9m in vivo after local administration, eleven 19-22 weeks old male mdx mice were subjected to intramuscular injections in both tibialis anterior (TA) muscles. Four mice were injected in both TAs with vehicle, three mice were injected with 3 mg/kg of OT-9m and four mice were injected with 10 mg/kg of OT-9m. After 4 hours of treatment, the TAs were harvested and processed for gene expression analysis.

The mark [3] stands for this setting: IP 30 mg/kg or 50 mg/kg, observed 72 hours, n=1.

As to `CCN(CC)c1ccc2cc(C(=O)Nc3ccc(C(=O)N4CCCCCC4)cc3)c(=O)oc2c1` [OT-9], the SSPN-HiBiT reporter response result in data set [1] (0.5-10 μM, 12-well and 384-well plate formats) is “dose-sensitive increases in SSPN”. Further, the “SSPN-HiBiT, fold change over vehicle” value in data set [1] (Table 1, *p<0.05) is given as 2.29* fold change over vehicle. The “appearance of the dosing solution” value in data set [2] (50 mg/kg solution in 5% DMSO, 95% PBS) is recorded as “some insoluble particles were observed”. Besides, in data set [2] (setting [3]), the “liver, kidneys, pancreas and intestine” value is “normal weight and size”; the “observation of the injection site” value is recorded as “No signs of inflammation, necrosis or compound accumulation”. Further, in the data set on SSPN gene expression (3 mg/kg intramuscular, tibialis anterior), the “increase in SSPN gene expression relative to the vehicle control-treated group” value was 1.7 fold. The “adverse effects after local injection” value in the data set on SSPN gene expression (OT-9 3 mg/kg intramuscular, both TA) is reported as “No adverse effects”.
